The target of assay [1] is B-Raf (V600E) (SEQ. ID NO: 4) kinase (Homo sapiens (Human), UniProt P15056, V600E). Kind of assay: Biochemical Assay for B-Raf (V600E) (1). To be noted: Table J, BRAF V600E, assay version (1); read-out: BRAF VE (1) IC50. In short, it runs like this:
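Coupled pyruvate kinase/lactate dehydrogenase assay: 0.03 nM B-Raf V600E, 30.1 nM MEK, 1 mM ATP, pH 7.5 Tris/MgCl2 buffer, 1% DMSO. NADH oxidation followed at 340 nm for 6 h at 30 °C; rate from 3–4 h converted to percent inhibition, IC50 by four-parameter fit.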

The target in assay [2] is A-Raf kinase (SEQ. ID No: 1) (Homo sapiens (Human), UniProt P10398, Y301D/Y302D). Kind of assay: Biochemical Assay for A-Raf (1). To be noted: Table J, assay version (1); read-out: ARAF (1) IC50. An outline of the steps: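 A-Raf Y301D/Y302D at 5.55 nM phosphorylates 30.1 nM MEK with 1 mM ATP in pH 7.5 Tris buffer, 1% DMSO. Activity was read continuously as NADH oxidation at 340 nm in a pyruvate kinase/lactate dehydrogenase coupled system for 6 h at 30 °C. Rates from 4–5 h were converted to percent inhibition, and IC50 came from a four-parameter fit.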
Chain of A-Raf kinase (SEQ. ID No: 1) (P10398 other isoform, or with tags, fused parts or gaps Y301D (already in the parent)/Y302D (already in the parent)): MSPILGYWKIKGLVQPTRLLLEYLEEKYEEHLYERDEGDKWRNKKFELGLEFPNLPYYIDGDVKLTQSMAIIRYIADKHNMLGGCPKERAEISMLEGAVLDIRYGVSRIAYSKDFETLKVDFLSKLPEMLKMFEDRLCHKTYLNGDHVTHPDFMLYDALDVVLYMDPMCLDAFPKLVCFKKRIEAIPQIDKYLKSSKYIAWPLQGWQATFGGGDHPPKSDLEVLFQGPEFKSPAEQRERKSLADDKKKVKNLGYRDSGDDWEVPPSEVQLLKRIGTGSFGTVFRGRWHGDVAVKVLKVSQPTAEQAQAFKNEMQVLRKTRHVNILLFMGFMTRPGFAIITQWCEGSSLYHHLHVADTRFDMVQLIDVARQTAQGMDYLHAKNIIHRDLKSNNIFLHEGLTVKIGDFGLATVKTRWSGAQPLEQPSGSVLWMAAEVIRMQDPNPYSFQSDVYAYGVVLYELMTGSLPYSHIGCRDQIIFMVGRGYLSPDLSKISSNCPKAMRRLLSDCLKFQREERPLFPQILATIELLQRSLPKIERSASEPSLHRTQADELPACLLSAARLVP

The test system of a further assay is A375 cells. Kind of assay: A375 Cell Proliferation Assay (1). Particulars: Homo sapiens, A-375. It is filed as cell-based. An outline of the steps: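 Resazurin fluorescence (excitation 540 nm, emission 600 nm, after a further 5-6 h) gave IC50s from triplicate compound dilution series.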

Where only a bound is given, the exact number is not on record here.

Chain of B-Raf (V600E) (SEQ. ID NO: 4) kinase (P15056 416-766 V600E): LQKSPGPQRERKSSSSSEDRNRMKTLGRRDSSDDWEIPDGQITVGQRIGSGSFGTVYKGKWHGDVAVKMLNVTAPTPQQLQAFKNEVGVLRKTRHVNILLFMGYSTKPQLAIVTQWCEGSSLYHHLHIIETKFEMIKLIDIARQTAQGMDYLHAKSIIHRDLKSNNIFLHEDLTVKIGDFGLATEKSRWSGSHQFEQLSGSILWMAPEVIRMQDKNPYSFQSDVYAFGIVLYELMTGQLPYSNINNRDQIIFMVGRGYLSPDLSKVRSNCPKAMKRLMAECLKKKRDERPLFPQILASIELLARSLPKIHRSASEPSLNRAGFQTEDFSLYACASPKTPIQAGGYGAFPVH

The IC50 is the midpoint of a concentration-inhibition curve. As to `CC(=O)Nc1cc(-c2cncc(-c3cc(C(=O)Nc4cnn(C(C)C)c4)ccc3C)n2)ccn1` [Example 87], the values for the IC50 (in assay [1]; in assay [2]; in the assay with A375 cells) were at most 0.1 µM, 1 to 10 µM and 0.5 to 1 µM, respectively.

On to `CC(=O)Nc1cc(-c2cc(-c3cc(NC(=O)c4ccnc(C(F)(F)F)c4)ccc3C)cc(OCCO)n2)ccn1` [Example 1, N-(3-(2′-acetamido-6-(2-hydroxyethoxy)-[2,4′-bipyridin]-4-yl)-4-methylphenyl)-2-(trifluoromethyl)isonicotinamide], for which the results for the IC50 (in assay [1]; in assay [2]; in the assay with A375 cells) were at most 0.1 µM, 1 to 10 µM and at most 0.1 µM, respectively.

For the compound `CC(=O)Nc1cc(-c2ccnc(-c3cc(NC(=O)c4ccnc(C(F)(F)F)c4)ccc3C)n2)ccn1` [Example 92], the results for the half-maximal inhibitory concentration (IC50) (in assay [1]; in assay [2]; in the assay with A375 cells) were at most 0.1 µM, 0.1 to 0.5 µM and 0.1 to 0.5 µM, respectively.

As to `CC(=O)Nc1cc(-c2cc(-c3cc(NC(=O)c4ccnc(C(F)(F)F)c4)ccc3C)ncn2)ccn1` [Example 84], the IC50 in assay [1] was at most 0.1 µM; in assay [2], 1 to 10 µM; with A375 cells it was 0.1 to 0.5 µM.

On to `Cc1ncc(NC(=O)c2ccnc(C(F)(F)F)c2)cc1-c1cccc(-c2ccnc(NC(=O)C3CC3)c2)c1` [Example 70], for which the figures for the IC50 (in assay [1]; in assay [2]; with A375 cells) were at most 0.1 µM, 0.5 to 1 µM and 0.1 to 0.5 µM, respectively.

In the case of `CC(=O)Nc1cc(-c2cc(-c3cc(NC(=O)c4ccnc(C(F)(F)F)c4)c(F)cc3C)ccn2)ccn1` [Example 2], the IC50 was at most 0.1 µM in assay [1], 0.5 to 1 µM in assay [2] and 0.1 to 0.5 µM in the assay with A375 cells.

Consider `CC(=O)Nc1cc(-c2cc(-c3cc(NC(=O)c4cccc(C(F)(F)F)c4)cnc3C)ccn2)ccn1` [Example 37], for which the 50% inhibitory concentration (IC50) in assay [1] is at most 0.1 µM; in assay [2] it was 1 to 10 µM; in the assay on A375 cells, at most 0.1 µM.

`CC(=O)Nc1cc(-c2cc(-c3cc(NC(=O)c4ccnc(C(F)(F)F)c4)ccc3F)cc(C)n2)ccn1` [Example 65]: the 50% inhibitory concentration (IC50) in assay [1] was at most 0.1 µM; in assay [2], 1 to 10 µM; with A375 cells, 0.5 to 1 µM.

On to `COCC(=O)Nc1cc(-c2nccc(-c3cc(NC(=O)c4ccnc(C(C)(C)C#N)c4)ccc3C)n2)ccn1` [Example 88], for which the IC50 in assay [1] was at most 0.1 µM; in assay [2], 1 to 10 µM; in the assay with A375 cells, at most 0.1 µM.

`CC(=O)Nc1cc(-c2cc(-c3cc(NC(=O)c4cccc(C)c4)ccc3C)ccn2)ccn1` [Example 32]: the half-maximal inhibitory concentration (IC50) in assay [1] was at most 0.1 µM; in assay [2], 0.5 to 1 µM; in the assay with A375 cells, 0.5 to 1 µM.

As to `Cc1cc(F)c(NC(=O)c2ccnc(C(F)(F)F)c2)cc1-c1ccnc(-c2ccnc(NC=O)c2)c1` [Example 35], the results for the IC50 (in assay [1]; in assay [2]; in the assay with A375 cells) were at most 0.1 µM, 1 to 10 µM and 0.5 to 1 µM, respectively.

In the case of `COCC(=O)Nc1cc(-c2cc(-c3cc(NC(=O)c4ccnc(C(C)(C)C#N)c4)ccc3C)ccn2)ccn1` [Example 61], the IC50 in assay [1] is at most 0.1 µM; in assay [2] it was 1 to 10 µM; in the assay on A375 cells, at most 0.1 µM.

With `CC(=O)Nc1cc(-c2cc(-c3cc(NC(=O)c4ccnc(C(C)(C)C#N)c4)c(F)cc3C)ccn2)ccn1` [Example 75], the IC50 in assay [1] is at most 0.1 µM; in assay [2] it was 1 to 10 µM; with A375 cells, at most 0.1 µM.

On to `CNC(=O)c1cc(-c2cc(-c3cc(NC(=O)c4ccnc(C)c4)ccc3C)ccn2)ccn1` [Example 40], for which the figures for the IC50 (in assay [1]; in assay [2]; with A375 cells) were at most 0.1 µM, 1 to 10 µM and 1 to 10 µM, respectively.

Regarding `CC(=O)Nc1cc(-c2cccc(-c3cc(NC(=O)c4ccnc(C(F)(F)F)c4)cnc3C)c2)ccn1` [Example 64], the values for the IC50 (in assay [1]; in assay [2]; in the assay with A375 cells) were at most 0.1 µM, 1 to 10 µM and 0.1 to 0.5 µM, respectively.

As for `CC(=O)Nc1cc(-c2cccc(-c3cc(NC(=O)c4ccnc(C(C)(C)C#N)c4)ccc3C)c2)ncn1` [Example 79], the results for the IC50 (in assay [1]; in assay [2]; in the assay on A375 cells) were at most 0.1 µM, 1 to 10 µM and at most 0.1 µM, respectively.

In the case of `Cc1ccc(NC(=O)c2ccnc(C(F)(F)F)c2)cc1-c1cncc(-c2ccnc(N)c2)n1` [Example 90], the IC50 in assay [1] is at most 0.1 µM; in assay [2] it was 1 to 10 µM; with A375 cells it was 1 to 10 µM.

With `Cc1ccc(NC(=O)c2ccnc(C(C)(C)C#N)c2)cc1-c1ccnc(-c2ccnc(NC(=O)CC#N)c2)c1` [Example 63], the IC50 in assay [1] is at most 0.1 µM; in assay [2], 0.5 to 1 µM; in the assay on A375 cells, 0.1 to 0.5 µM.

As to `CNC(=O)c1cc(-c2cncc(-c3cc(NC(=O)c4ccnc(C(F)(F)F)c4)ccc3C)n2)ccn1` [Example 47], the IC50 is at most 0.1 µM in assay [1], 1 to 10 µM in assay [2] and 1 to 10 µM with A375 cells.

As to `Cc1ccc(NC(=O)c2ccnc(C(F)(F)F)c2)cc1-c1cccc(-c2ccnc(NC(=O)CC#N)c2)c1` [Example 62], the figures for the IC50 (in assay [1]; in assay [2]; with A375 cells) were at most 0.1 µM, 0.1 to 0.5 µM and 0.1 to 0.5 µM, respectively.

On to `Cc1cc(-c2cc(NC(=O)c3ccnc(C(F)(F)F)c3)ccc2F)cc(-c2ccnc(NC(=O)C3CC3)c2)n1` [Example 72], for which the IC50 in assay [1] is at most 0.1 µM; in assay [2] it was 1 to 10 µM; in the assay on A375 cells, 1 to 10 µM.

For the compound `Cc1ccc(NC(=O)c2ccnc(C(F)(F)F)c2)cc1-c1ccnc(-c2ccnc(NC(=O)CC#N)c2)c1` [Example 39, N-(3-(2′-(2-cyanoacetamido)-[2,4′-bipyridin]-4-yl)-4-methylphenyl)-2-(trifluoromethyl)isonicotinamide], the figures for the IC50 (in assay [1]; in assay [2]; in the assay on A375 cells) were at most 0.1 µM, 1 to 10 µM and 0.5 to 1 µM, respectively.

Regarding `CC(=O)Nc1cc(-c2cc(-c3cc(NC(=O)c4ccnc(C(F)(F)F)c4)cnc3C)ccn2)ccn1` [Example 36], the IC50 in assay [1] was at most 0.1 µM; in assay [2] it was 1 to 10 µM; with A375 cells, 0.5 to 1 µM.

With `CC(=O)Nc1cc(-c2cc(-c3cc(NC(=O)c4ccnc(C(F)(F)F)c4)ccc3C)nc(C)n2)ccn1` [Example 83], the IC50 in assay [1] was at most 0.1 µM; in assay [2], 1 to 10 µM; with A375 cells it was 0.1 to 0.5 µM.

Take `CNC(=O)c1cc(-c2nccc(-c3cc(NC(=O)c4ccnc(C(C)(C)C#N)c4)ccc3C)n2)ccn1` [Example 78]: the IC50 in assay [1] is at most 0.1 µM; in assay [2] it was 1 to 10 µM; in the assay on A375 cells, at most 0.1 µM.

For the compound `Cc1ccc(NC(=O)c2ccnc(C(F)(F)F)c2)cc1-c1ccnc(-c2ccnc(NC=O)c2)c1` [Example 46], the IC50 in assay [1] is at most 0.1 µM; in assay [2], 1 to 10 µM; with A375 cells it was 1 to 10 µM.

Turning to `CNC(=O)c1cc(-c2cccc(-c3cc(NC(=O)c4ccnc(C(F)(F)F)c4)cnc3C)c2)ccn1` [Example 73], the IC50 was at most 0.1 µM in assay [1], 1 to 10 µM in assay [2] and 1 to 10 µM in the assay with A375 cells.

Turning to `Cc1ccc(NC(=O)c2ccnc(C(C)(C)C#N)c2)cc1-c1cncc(-c2ccnc3c2CC(=O)N3)n1` [Example 43], the figures for the IC50 (in assay [1]; in assay [2]; in the assay with A375 cells) were at most 0.1 µM, 1 to 10 µM and 0.5 to 1 µM, respectively.

For `CC(=O)Nc1cc(-c2cc(-c3cc(NC(=O)c4ccnc(C)c4)ccc3C)ncn2)ccn1` [Example 59], the IC50 was at most 0.1 µM in assay [1], 1 to 10 µM in assay [2] and 1 to 10 µM in the assay on A375 cells.

In the case of `CNC(=O)c1cc(-c2cc(-c3cc(NC(=O)c4ccnc(C)c4)ccc3C)ncn2)ccn1` [Example 60], the values for the IC50 (in assay [1]; in assay [2]; with A375 cells) were at most 0.1 µM, 1 to 10 µM and 1 to 10 µM, respectively.
